Experimental data as given in ChEMBL document CHEMBL1201862, “PubChem BioAssay data set” (2004).
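Five concentrations, 48 hours, 96-well plates. At the GI50, growth is halved.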 Active and inactive are the calls of the source. Cut-off read from the data, not from the text of the source: active = GI50 up to about 1.1 µM and inactive = higher.

What was measured:
Assay in all cases: NCI anticancer screen, dose series, 48 h
SK-MEL-28 = test system: SK-MEL-28
RPMI-8226 = test system: RPMI-8226
OVCAR-5 = test system: OVCAR-5
SK-OV-3 = test system: SK-OV-3
OVCAR-3 = test system: OVCAR-3
OVCAR-4 = test system: OVCAR-4
SW-620 = test system: SW-620
UACC-62 = test system: UACC-62
NCI-H226 = test system: NCI-H226
HCT-15 = test system: HCT-15
786-0 = test system: 786-0
MCF7 = test system: MCF7
NCI-H522 = test system: NCI-H522
EKVX = test system: EKVX
K562 = test system: K562
SF-268 = test system: SF-268
HT-29 = test system: HT-29
MDA-MB-231 = test system: MDA-MB-231
DU-145 = test system: DU-145

Row | Structure (SMILES) | GI50 (SK-MEL-28) | GI50 (RPMI-8226) | GI50 (OVCAR-5) | GI50 (SK-OV-3) | GI50 (OVCAR-3) | GI50 (OVCAR-4) | GI50 (SW-620) | GI50 (UACC-62) | GI50 (NCI-H226) | GI50 (HCT-15) | GI50 (786-0) | GI50 (MCF7) | GI50 (NCI-H522) | GI50 (EKVX) | GI50 (K562) | GI50 (SF-268) | GI50 (HT-29) | GI50 (MDA-MB-231) | GI50 (DU-145)
1 | COC(=O)C(/C(=N/N)C(=O)Nc1cccc(O)c1)c1nc2ccccc2nc1O (centres undefined) | > 100 µM (inactive) | > 10 µM (inactive) | > 100 µM (inactive) | > 100 µM (inactive) | > 100 µM (inactive) | > 100 µM (inactive) | > 100 µM (inactive) | > 100 µM (inactive) | > 100 µM (inactive) | > 100 µM | > 100 µM (inactive) | > 100 µM (inactive) | > 100 µM (inactive) | > 100 µM (inactive) | > 100 µM (inactive) | > 100 µM (inactive) | > 100 µM (inactive) | > 100 µM (inactive) | –
2 | COc1ccc2[nH]c3c(C)c4cc[n+](C)cc4c(C)c3c2c1 | 1.32 µM (inactive) | – | 6.67 µM (inactive) | 7.74 µM (inactive) | 2.82 µM (inactive) | 1.91 µM (inactive) | 0.587 µM (active) | 2.16 µM (inactive) | 0.232 µM (active) | – | – | 2.16 µM (inactive) | 0.548 µM (active) | 0.738 µM (active) | – | 0.148 µM (active) | 3.23 µM (inactive) | – | –
3 | OC1(c2ccc(Cl)cc2)c2c(c3ccccc3c3ccccc23)C2=NCCN21 (centres undefined) | 18.3 µM (inactive) | 34.4 µM (inactive) | 17 µM (inactive) | 16.4 µM (inactive) | 23.8 µM (inactive) | 3.43 µM (inactive) | 12.6 µM (inactive) | 15.9 µM (inactive) | – | 24.3 µM | 4.02 µM (inactive) | 14.6 µM (inactive) | – | 13.6 µM (inactive) | 37.3 µM (inactive) | 10.6 µM (inactive) | 14.6 µM (inactive) | 12 µM (inactive) | 17.4 µM (inactive)
4 | CCCCn1cnnc1NS(=O)(=O)c1cc(C)c(Cl)cc1SCC(=O)O | > 10 µM (inactive) | > 10 µM (inactive) | > 10 µM (inactive) | > 10 µM (inactive) | > 10 µM (inactive) | > 10 µM (inactive) | > 10 µM (inactive) | > 10 µM (inactive) | > 10 µM (inactive) | > 10 µM | > 10 µM (inactive) | – | > 10 µM (inactive) | > 10 µM (inactive) | > 10 µM (inactive) | > 10 µM (inactive) | > 10 µM (inactive) | > 10 µM (inactive) | > 10 µM (inactive)
5 | CCN(CC)Cc1ccc(C(=S)Nc2ccc(Cl)cc2)s1 | 6.92 µM (inactive) | 6.31 µM (inactive) | 11.3 µM (inactive) | 15.2 µM (inactive) | 15.3 µM (inactive) | 10 µM (inactive) | 12.2 µM (inactive) | 9.57 µM (inactive) | – | 10.7 µM | 13.1 µM (inactive) | 11 µM (inactive) | 11.4 µM (inactive) | 4.06 µM (inactive) | 1.87 µM (inactive) | 11.3 µM (inactive) | 2.91 µM (inactive) | – | 15 µM (inactive)
6 | Cc1cc(-c2ccc(C(=O)C(Cl)(Cl)Cl)[nH]2)on1 | 31.4 µM (inactive) | 8.51 µM (inactive) | 22.6 µM (inactive) | 60 µM (inactive) | 25.1 µM (inactive) | 35.5 µM (inactive) | 50.6 µM (inactive) | 28.2 µM (inactive) | 22.4 µM (inactive) | 28 µM | 37 µM (inactive) | – | 21.2 µM (inactive) | 35.1 µM (inactive) | 18.3 µM (inactive) | 36.9 µM (inactive) | 28.4 µM (inactive) | 18 µM (inactive) | 16.1 µM (inactive)
7 | CCOC(=O)c1c(N2CCCC2)ncn(Cc2ccccc2)c1=S | > 100 µM (inactive) | > 100 µM (inactive) | > 100 µM (inactive) | > 100 µM (inactive) | > 100 µM (inactive) | 91.4 µM (inactive) | > 100 µM (inactive) | 63 µM (inactive) | > 100 µM (inactive) | > 100 µM | > 100 µM (inactive) | – | > 100 µM (inactive) | > 100 µM (inactive) | 87.5 µM (inactive) | > 100 µM (inactive) | > 100 µM (inactive) | > 100 µM (inactive) | > 100 µM (inactive)
8 | COc1ccc2c(c1)[n+]([O-])c(C#N)c(N1CCN(c3ccc([N+](=O)[O-])cc3)CC1)[n+]2[O-] | 16.3 µM (inactive) | – | 7.1 µM (inactive) | 8.09 µM (inactive) | 9.91 µM (inactive) | 3.94 µM (inactive) | 5.55 µM (inactive) | 3.76 µM (inactive) | 10.7 µM (inactive) | 3.16 µM | 8.63 µM (inactive) | – | 1.81 µM (inactive) | 2.74 µM (inactive) | 1.45 µM (inactive) | 2.91 µM (inactive) | > 22.4 µM (inactive) | 5.31 µM (inactive) | 8.22 µM (inactive)
9 | CC(=O)OCCN(C1=NCCN1)/[N+](C=c1ccc(=C=[N-])cc1)=C/c1ccc(C#N)cc1 | > 100 µM (inactive) | – | > 100 µM (inactive) | > 100 µM (inactive) | > 100 µM (inactive) | > 100 µM (inactive) | > 100 µM (inactive) | > 100 µM (inactive) | > 100 µM (inactive) | > 100 µM | > 100 µM (inactive) | > 100 µM (inactive) | > 100 µM (inactive) | > 100 µM (inactive) | > 100 µM (inactive) | > 100 µM (inactive) | > 100 µM (inactive) | > 100 µM (inactive) | –
10 | Nc1nc(SCc2ccccc2Cl)c2[nH]cnc2n1 | 68.9 µM (inactive) | > 100 µM (inactive) | 96.4 µM (inactive) | 24.7 µM (inactive) | 97.7 µM (inactive) | – | > 100 µM (inactive) | 61 µM (inactive) | – | 51.5 µM | – | – | 56.4 µM (inactive) | 85.9 µM (inactive) | 50.2 µM (inactive) | 58.7 µM (inactive) | – | – | –
11 | NNC1=N/C(=C\c2ccccc2O)C(=O)N1 | 60.8 µM (inactive) | 24 µM (inactive) | 65.3 µM (inactive) | 31.7 µM (inactive) | 35.1 µM (inactive) | – | 47.1 µM (inactive) | 48.1 µM (inactive) | 47.5 µM (inactive) | 6.31 µM | 20.7 µM (inactive) | – | 35.3 µM (inactive) | 50.5 µM (inactive) | 28.1 µM (inactive) | 31 µM (inactive) | 53.6 µM (inactive) | 35.4 µM (inactive) | 34.9 µM (inactive)
12 | COC(=O)C(Cc1cn(C(C)n2cc(CC(NC(C)=O)C(=O)OC)c3ccccc32)c2ccccc12)NC(C)=O (centres undefined) | > 100 µM (inactive) | 83.9 µM (inactive) | > 100 µM (inactive) | > 100 µM (inactive) | > 100 µM (inactive) | > 100 µM (inactive) | > 100 µM (inactive) | 98.2 µM (inactive) | – | > 100 µM | – | – | 12.2 µM (inactive) | 25.5 µM (inactive) | – | 48.1 µM (inactive) | > 100 µM (inactive) | 44.5 µM (inactive) | > 100 µM (inactive)
13 | c1ccc(/N=C2\C(=N/c3ccccc3)N(C3CCCCC3)/C(=N\C3CCCCC3)N2c2ccccc2)cc1 | > 100 µM (inactive) | > 100 µM (inactive) | > 100 µM (inactive) | – | – | – | > 100 µM (inactive) | – | > 100 µM (inactive) | > 100 µM | > 100 µM (inactive) | > 100 µM (inactive) | – | > 100 µM (inactive) | > 100 µM (inactive) | – | > 100 µM (inactive) | > 100 µM (inactive) | –
